Paper PMC5490399, “Glycosaminoglycan Binding and Non-Endocytic Membrane Translocation of Cell-Permeable Octaarginine Monitored by Real-Time In-Cell NMR Spectroscopy” (Pharmaceuticals, 2017)
Non-standard residues stand in square brackets, D forms with d. Residues, ends and D or L forms follow the SMILES beside them. Phe(4-CF3) = N[C@@H](Cc1ccc(C(F)(F)F)cc1)C(=O)O

Key:
Type in all cases: cell-based, human
HL60 cells [1] = test system: HL60 cells
Method: (§1) One-dimensional in-cell ^19F NMR measurements were carried out at 376.2 MHz by using a JEOL ECA400 NMR spectrometer equipped with a superconducting magnet of 9.4 T. A multinuclear probe (JEOL, NM40T10A/AT) for a 10-mm diameter tube was used. Detailed procedures of the measurement are described elsewhere. Briefly, HL60 cells (the final concentration, 1 × 10^7 cells/mL) were suspended in phosphate-buffered saline (PBS, pH 7.4) at 4 °C and put into a NMR tube. In order to confirm no contribution of energy-dependent endocytosis at 4 °C, the comparative measurement was also performed at 37 °C. To avoid cellular toxicity, the amount of D2O used for the signal lock was decreased to 10%. The sample was gently rotated to prevent the sedimentation of the cells. Field-gradient shimming was applied before the addition of the peptide, to quickly attain the spectral resolution. The measurements started immediately after the thermal equilibrium was attained, 1.5 min after the addition of the ^19F-labeled peptides. […] Cell viability, assessed by the trypan blue staining after the NMR measurement at 4 °C, was 92% ± 1% for ^19F-R8 and 94% ± 1% for ^19F-T6 with respect to the control value, 94% ± 2%. […]
Cell peptide concentrations inside and outside were estimated by using the signal intensities of real-time ^19F NMR difference spectra in Figure 2b. Figure A1 illustrates how peptide concentrations were determined from the ^19F NMR spectra. […]
The concentration of these three components can be evaluated from the signal intensities by integrating the respective peak areas. […] Since the total ^19F-R8 concentration is 80 μM, the concentrations of free, bound to GAG, and membrane components are calculated to be […], 9, and 5 μM, respectively.
Figure A1 Illustration of the signal intensity estimation in the ^19F NMR difference spectrum. […] The concentration of these three components can be evaluated from the signal intensities by integrating the respective peak areas (see text).

HL60 cells [2] = test: Steady state 19F NMR after cell fractionation (final distribution); settings: 19F NMR at 4 °C
Method: In the previous sections, we succeeded in comprehensive observation and quantitative analysis of the non-endocytic translocation of ^19F-R8 to the cell inside. To confirm that ^19F-R8 is actually transferred to cytosol across the cell membrane, the final distribution of ^19F-R8 was evaluated by cell fractionation after equilibrium was attained in real-time NMR measurements. Membrane solubilization and centrifugation techniques were combined in accordance with Scheme 1. First, we examined how much of ^19F-R8 was finally bound to cells. In Figure 7a, the ^19F NMR spectra of ^19F-R8 in the supernatant I is compared with total ^19F-R8 as a control at 4 °C. The ^19F NMR signal intensity of the supernatant I corresponds to ^19F-R8 that is still in a free (unbound) state under equilibrium. […] The value is consistent with the result of the real-time in-cell NMR measurement showing about 65 μM (81%) of ^19F-R8 is remaining in a free state after the equilibrium is attained (Figure 6). Next, to confirm that ^19F-R8 is actually bound to HL60 cell, the cell pellet I was solubilized by lysis buffer containing 1% Triton X-100. After the centrifugation, the supernatant II was subject to ^19F NMR measurement at 4 °C. The spectrum is shown in Figure 7b as Lysate, and 13% of the initial ^19F-R8 was detected.
It is considered that three components of ^19F-R8 are contained in the Lysate. They include ^19F-R8 bound to GAG or cell membrane, and ^19F-R8 in cytosol. We separated these components as the supernatant III and the pellet III by centrifuging the Lysate at 100,000× g. Supernatant III consists of ^19F-R8 in cytosol, and pellet III contains ^19F-R8 bound to GAG or cell membrane (referred as Membrane); see Scheme 1. […] It should be noted that the observed chemical shift of NMR signal in this system is too complicated to understand. For example, the cell solubilization exposes ^19F-R8 to numerous molecules derived from cells. Also, the cytosol fraction was obtained by lyophilization of 50 mL lysis buffer A. This leads to the increased concentrations of components (Triton X-100, Tris-HCl, EDTA, NaCl in lysis buffer A) in the final sample to be measured. The condition of the solvent such as ionic strength and pH affects the chemical shift of ^19F-R8 NMR signal. Thus the integral NMR intensity is useful for the steady state NMR spectra because it is basically proportional to the nuclear concentration.
The amount of ^19F-R8 finally delivered to the cytosol was quantified by ^19F NMR under equilibrium in combination with the cell fractionation using membrane solubilization and centrifugation. The cell fractionation procedures are summarized in Scheme 1. After the real-time ^19F NMR measurement, 4 mL of the sample were centrifuged at 1500× g for 5 min at 4 °C. Pellet I was washed twice with 4 mL of PBS and centrifuged again. Then the 8 mL of supernatant I was collected and subject to ^19F NMR measurement at 4 °C, to quantify free ^19F-R8. Next, 4 mL of lysis buffer A (1% Triton X-100, 50 mM Tris-HCl, 50 mM EDTA, 150 mM NaCl, 10% D2O) was added to pellet I, and left for 15 min on ice to complete the cell membrane solubilization. The solution was centrifuged at 15,000× g for 15 min at 4 °C, to separate pellet II and supernatant II. Then, supernatant II was collected and subjected to ^19F NMR measurement at 4 °C (called Lysate). After measurement, 50 mL of lysis buffer A was added and centrifuged at 100,000× g for 3 h at 4 °C. […]

HL60 cells [3] = settings: 100 μM
Method: as §1, with “peptides. The final concentrations of ^19F-R8 and ^19F-T6 were 80 μM and 100 μM, respectively, and these were high enough to observe non-endocytic translocation.” for “peptides.”

degradation of peptide in the presence of HL60 cells (integral 19F NMR intensity) (HL60 cells [1]; pH 7.4)	peptide in a free state (supernatant I) under equilibrium (HL60 cells [2]; HL60, after real-time NMR at 4 °C, centrifugation 1500× g, pH 7.4, versus total peptide) [%]	peptide in cytosol fraction (supernatant III) (HL60 cells [2]; Lysate centrifuged at 100,000× g)	peptide in membrane fraction (pellet III) (HL60 cells [2]; Lysate centrifuged at 100,000× g, equilibrium state)	peptide detected in Lysate (supernatant II), of the initial peptide (HL60 cells [2]; pellet I solubilized with 1% Triton X-100 lysis buffer, 15,000× g, pH 7.5) [%]	peptide in DNA and cytoskeleton fraction (pellet II) (HL60 cells [2]; pellet II solubilized)	interaction with HL60 cells (change of 19F NMR and difference spectrum) (HL60 cells [1])	Structure (SMILES)	time at which transfer to cytosol was first observed (HL60 cells [1]; HL60, PBS pH 7.4, 4 °C, 80 μM peptide)	Cell viability (HL60 cells [3])
no degradation	77	observed in the cytosol fraction	within the experimental error	13	not yet detectable	–	CC(=O)N[C@@H](Cc1ccc(C(F)(F)F)cc1)C(=O)N[C@@H](CCCNC(=N)N)C(=O)N[C@@H](CCCNC(=N)N)C(=O)N[C@@H](CCCNC(=N)N)C(=O)N[C@@H](CCCNC(=N)N)C(=O)N[C@@H](CCCNC(=N)N)C(=O)N[C@@H](CCCNC(=N)N)C(=O)N[C@@H](CCCNC(=N)N)C(=O)N[C@@H](CCCNC(=N)N)C(N)=O [^19F-R8]	around 5 min	–
–	–	–	–	–	–	no interaction occurs	CC[C@H](C)[C@H](NC(=O)CNC(=O)[C@H](CO)NC(=O)[C@H](CC(=O)O)NC(=O)[C@H](Cc1ccc(C(F)(F)F)cc1)NC(=O)[C@@H](NC(=O)[C@@H](N)[C@@H](C)O)C(C)C)C(=O)N[C@@H](CO)C(=O)N[C@@H](CCC(=O)O)C(=O)N[C@H](C(=O)N[C@@H](CCCNC(=N)N)C(=O)O)C(C)C [^19F-T6, reference compound] (H-TV[Phe(4-CF3)]DSGISEVR-OH)	–	94% ± 1%
